Reference: US8383619B2, “Pharmaceutical compounds” (Astex Therapeutics Limited, priority 2008, dated 2013)

Legend:
Type in all cases: cell-based
one hundred cell lines = assay: Anti-proliferative assays against one hundred cell lines; conditions: wide range of different cell lines
Procedure: The anti-proliferative activities of the parent compounds of the pro-drugs of the invention may be determined by measuring the ability of the compounds to inhibition of cell growth in a number of cell lines such as the human colon cancer cell line HCT116. Inhibition of cell growth is measured using the Alamar Blue assay (Nociari, M. M, Shalev, A., Benias, P., Russo, C. Journal of Immunological Methods 1998, 213, 157-167). The method is based on the ability of viable cells to reduce resazurin to its fluorescent product resorufin. For each proliferation assay cells are plated onto 96 well plates and allowed to recover for 16 hours prior to the addition of inhibitor compounds for a further 72 hours. At the end of the incubation period 10% (v/v) Alamar Blue is added and incubated for a further 6 hours prior to determination of fluorescent product at […]. In the case of the non-proliferating cell assay cells are maintained at confluence for 96 hour prior to the addition of inhibitor compounds for a further 72 hours. The number of viable cells is determined by Alamar Blue assay as before. Cell lines may be obtained from the ECACC (European Collection of cell Cultures). […]

Malme-3M = assay: Anti-proliferative assay (Oncodesign); conditions: Homo sapiens; Malme-3M (SKIN); read-out: IC50 (Concentration of test compound)
Procedure, shortened: (§1)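 Testing covered concentrations up to 10,000 nanomolar, giving IC50 values in nM. Cells treated for 72 h after 16 h recovery were then incubated 6 h with 10% (v/v) Alamar Blue and read at 535 nm ex/[…].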

EHEB = assay: Anti-proliferative assay (Oncodesign); conditions: EHEB (BLOOD); read-out: IC50 (Concentration of test compound)
Procedure, shortened: as §1

DU 145 = assay: Anti-proliferative assay (Oncodesign); conditions: Homo sapiens; DU 145 (PROSTATE); read-out: IC50 (Concentration of test compound)
Procedure, shortened: as §1

Caov-3 = assay: Anti-proliferative assay (Oncodesign); conditions: Homo sapiens; Caov-3 (OVARY); read-out: IC50 (Concentration of test compound)
Procedure, shortened: as §1

Calu-1 = assay: Anti-proliferative assay (Oncodesign); conditions: Homo sapiens; Calu-1 (LUNG); read-out: IC50 (Concentration of test compound)
Procedure, shortened: as §1

CGL-1 = assay: Anti-proliferative assay (Oncodesign); conditions: CGL-1 (BRAIN); read-out: IC50 (Concentration of test compound)
Procedure, shortened: as §1

SK-MEL-5 = assay: Anti-proliferative assay (Oncodesign); conditions: Homo sapiens; SK-MEL-5 (SKIN); read-out: IC50 (Concentration of test compound)
Procedure, shortened: as §1

NCI-H82 = assay: Anti-proliferative assay (Oncodesign); conditions: Homo sapiens; NCI-H82 (LUNG); read-out: IC50 (Concentration of test compound)
Procedure, shortened: as §1

LB771-HNSCC = assay: Anti-proliferative assay (Oncodesign); conditions: LB771-HNSCC (HEAD AND NECK); read-out: IC50 (Concentration of test compound)
Procedure, shortened: as §1

SK-HEP-1 = assay: Anti-proliferative assay (Oncodesign); conditions: Homo sapiens, SK-HEP1; SK-HEP-1 (LIVER); read-out: IC50 (Concentration of test compound)
Procedure, shortened: as §1

LNCaP-FGC = assay: Anti-proliferative assay (Oncodesign); conditions: LNCaP-FGC (PROSTATE); read-out: IC50 (Concentration of test compound)
Procedure, shortened: as §1

SUP-B15 = assay: Anti-proliferative assay (Oncodesign); conditions: Homo sapiens; SUP-B15 (BLOOD); read-out: IC50 (Concentration of test compound)
Procedure, shortened: as §1

BB64-RCC = assay: Anti-proliferative assay (Oncodesign); conditions: BB64-RCC (KIDNEY); read-out: IC50 (Concentration of test compound)
Procedure, shortened: as §1

LoVo = assay: Anti-proliferative assay (Oncodesign); conditions: Homo sapiens; LoVo (COLON); read-out: IC50 (Concentration of test compound)
Procedure, shortened: as §1

LB996-RCC = assay: Anti-proliferative assay (Oncodesign); conditions: LB996-RCC (KIDNEY); read-out: IC50 (Concentration of test compound)
Procedure, shortened: as §1

BB65-RCC = assay: Anti-proliferative assay (Oncodesign); conditions: BB65-RCC (KIDNEY); read-out: IC50 (Concentration of test compound)
Procedure, shortened: as §1

MCF-7 = assay: Anti-proliferative assay (Oncodesign); conditions: Homo sapiens, MCF7; MCF-7 (BREAST); read-out: IC50 (Concentration of test compound)
Procedure, shortened: as §1

NCI-H1299 = assay: Anti-proliferative assay (Oncodesign); conditions: Homo sapiens; NCI-H1299 (LUNG); read-out: IC50 (Concentration of test compound)
Procedure, shortened: as §1

LB37-NSCLC = assay: Anti-proliferative assay (Oncodesign); conditions: LB37-NSCLC (LUNG); read-out: IC50 (Concentration of test compound)
Procedure, shortened: as §1

HL-60/R10 = assay: Anti-proliferative assay (Oncodesign); conditions: Homo sapiens; HL-60/R10 (BLOOD); read-out: IC50 (Concentration of test compound)
Procedure, shortened: as §1

FTC-238 = assay: Anti-proliferative assay (Oncodesign); conditions: FTC-238 (THYROID); read-out: IC50 (Concentration of test compound)
Procedure, shortened: as §1

Hs 294T = assay: Anti-proliferative assay (Oncodesign); conditions: Homo sapiens; Hs 294T (SKIN); read-out: IC50 (Concentration of test compound)
Procedure, shortened: as §1

T24 = assay: Anti-proliferative assay (Oncodesign); conditions: Homo sapiens, T-24; T24 (URINARY BLADDER); read-out: IC50 (Concentration of test compound)
Procedure, shortened: as §1

HCC1954 = assay: Anti-proliferative assay (Oncodesign); conditions: Homo sapiens; HCC1954 (BREAST); read-out: IC50 (Concentration of test compound)
Procedure, shortened: as §1

IC50 (Calu-1): 270 nM | IC50 (SK-MEL-5): 185 nM | IC50 (NCI-H82): > 10000 nM | IC50 (SK-HEP-1): > 10000 nM | IC50 (LNCaP-FGC): 78 nM | IC50 (LoVo): 51 nM | IC50 (MCF-7): > 10000 nM | IC50 (NCI-H1299): 587 nM | IC50 (HL-60/R10): 847 nM | IC50 (T24): 852 nM | IC50 (HCC1954): 28 nM
SMILES: CC(C)c1cc(C(=O)N2Cc3ccc(CN4CCN(C)CC4)cc3C2)c(O)cc1O [(2,4-dihydroxy-5-isopropyl-phenyl)-[5-(4-methyl-piperazin-1-ylmethyl)-1,3-dihydro-isoindol-2-yl]-methanone]
anti-proliferative activity (one hundred cell lines): potent anti-proliferative activity | IC50 (Malme-3M): 157 nM | IC50 (EHEB): > 10000 nM | IC50 (DU 145): 85 nM | IC50 (Caov-3): 94 nM | IC50 (CGL-1): > 10000 nM | IC50 (LB771-HNSCC): 391 nM | IC50 (SUP-B15): 37 nM | IC50 (BB64-RCC): > 10000 nM | IC50 (LB996-RCC): 158 nM | IC50 (BB65-RCC): 1250 nM | IC50 (LB37-NSCLC): 63 nM | IC50 (FTC-238): 26 nM | IC50 (Hs 294T): 219 nM
